Measurements published in PMC11004567 (Heliyon, 2024).
Converted amounts (≈) assume the structure as drawn. Where two headings read alike, the source gives them in different places.

Experiments:
[1] = system: M. kansasii DSM 44162; assay: In vitro antimycobacterial evaluation, broth dilution micro-method; assay type: cell-based; conditions: Mycobacterium kansasii, DSM44162, read-out: MIC M. kansasii DSM 44162
[2] = system: VRE 368, vancomycin-resistant E. faecalis; assay: In vitro anti-enterococcal MIC, broth dilution micro-method; assay type: cell-based, Enterococcus faecalis; conditions: 24 h, read-out: MIC VRE 368
[3] = system: MRSA1, methicillin-resistant S. aureus clinical isolate SA 3202; assay: In vitro antibacterial evaluation, broth dilution micro-method MIC; assay type: cell-based; conditions: Staphylococcus aureus, MRSA, read-out: MIC MRSA1
[4] = system: mature S. aureus ATCC 29213 biofilm; assay: Biofilm disruption / eradication of mature biofilm; assay type: cell-based, Staphylococcus aureus
[5] = system: VRE 725 B, vancomycin-resistant E. faecalis; assay: In vitro anti-enterococcal MIC, broth dilution micro-method; assay type: cell-based, Enterococcus faecalis; conditions: 24 h, read-out: MIC VRE 725 B
[6] = system: MRSA3, methicillin-resistant S. aureus clinical isolate 63718; assay: In vitro antibacterial evaluation, broth dilution micro-method MIC; assay type: cell-based; conditions: Staphylococcus aureus, read-out: MIC MRSA3
[7] = system: E. faecalis ATCC 29213; assay: In vitro anti-enterococcal MIC, broth dilution micro-method; assay type: cell-based; conditions: Enterococcus faecalis, ATCC29213, 24 h, read-out: MIC E. faecalis ATCC 29213
[8] = Lipophilicity log k by RP-HPLC; assay type: physicochemical; conditions: logarithm of capacity factor, experimentally determined by RP-HPLC
[9] = system: VRE 342B, vancomycin-resistant E. faecalis; assay: In vitro anti-enterococcal MIC, broth dilution micro-method; assay type: cell-based, Enterococcus faecalis; conditions: 24 h, read-out: MIC VRE 342B
[10] = system: breast cancer MCF-7 cells; conditions: through creation of ROS, disruption of mitochondrial membrane potential; cited from earlier work
[11] = system: human monocytic leukemia cell line THP-1; assay: In vitro cell viability analysis; assay type: cell-based; conditions: read-out: IC50 THP-1
[12] = system: non-cancer human renal proximal tubule epithelial TH-1 cells; conditions: read-out: IC50 TH-1; cytotoxicity, non-cancer renal TH-1 cells; cited from earlier work
[13] = system: Staphylococcus aureus ATCC 29213; assay: In vitro antibacterial evaluation, broth dilution micro-method MIC; assay type: cell-based
[14] = system: MRSA2, methicillin-resistant S. aureus clinical isolate SA 630; assay: as above; assay type: cell-based; conditions: Staphylococcus aureus, MRSA, read-out: MIC MRSA2
[15] = system: S. aureus ATCC 29213; assay: Dynamics of antibacterial effect; assay type: cell-based, Staphylococcus aureus; conditions: time-kill curves, 1×, 2× (SB3–Cu also 4×) MIC, up to 24 h
[16] = system: S. aureus ATCC 29213; assay: MTT assay, inhibition of respiratory activity; assay type: cell-based, Staphylococcus aureus; conditions: at 16 × MIC
[17] = ATCC29213, 24 h, read-out: MIC SA

SMILES | MIC [2] | MIC ([3]; 24 h) | MIC [3] | MIC [5] | MIC ([6]; 24 h) | MIC [6] | MIC [7] | log k [8] | MIC [9] | IC50 ([11]; Homo sapiens, THP-1, 24 h) | IC50 [12] | MIC [13, 17] | MIC ([13]; ATCC29213, read-out: MIC SA) | MIC ([14]; 24 h) | MIC [14] | further results
NNC(=O)c1ccncc1 [INH, isoniazid] |  |  |  |  |  |  |  |  |  |  |  |  |  |  |  | MIC [1]: 29.1 µM (≈ 3.99 µg/mL)
O=C1c2ccccc2NC(c2cc([N+](=O)[O-])ccc2O)N1/N=C/c1cc([N+](=O)[O-])ccc1O (stereo not shown) [SB3, 3-[(E)-(2-hydroxy-5-nitrobenzylidene)amino]-2-(2-hydroxy-5-nitrophenyl)-2,3-dihydroquinazolin-4(1H)-one] | > 256 µg/mL | 64 µg/mL | 141 µM | > 256 µg/mL | 64 µg/mL | 141 µM | 256 µg/mL (≈ 570 µM) | 0.6022 | > 256 µg/mL | 12.7 ± 1.2 µM | 432 µM | 32 µg/mL | 71.2 µM | 16 µg/mL | 35.6 µM | Reduction of biofilm viability ([4]; at 0.5 × MIC): no effect; Eradication activity on mature biofilm ([4]; at 1 × MIC): 81.7 ± 13.7%; Concentration eradicating 80% of S. aureus biofilm ([4]; mature biofilm, 24 h treatment): 1 × MIC; Apoptosis of MCF-7 cells [10]: induces apoptosis; Mode of antibacterial action (bactericidal vs bacteriostatic) [15]: only bacteriostatically
COc1cccc(/C=N/N2C(=O)c3ccccc3NC2c2cccc(OC)c2O)c1O (stereo not shown) [SB8, 3-[(E)-(2-hydroxy-3-methoxybenzylidene)amino]-2-(2-hydroxy-3-methoxyphenyl)-2,3-dihydroquinazolin-4(1H)-one] | > 256 µg/mL | > 256 µg/mL |  | > 256 µg/mL | > 256 µg/mL |  | > 256 µg/mL | 0.1689 | > 256 µg/mL | > 50 µM | > 1000 µM | > 256 µg/mL |  | > 256 µg/mL |  | 
CC1(C)S[C@@H]2[C@H](NC(=O)[C@H](N)c3ccccc3)C(=O)N2[C@H]1C(=O)O [AMP, ampicillin, reference compound] | 4 µg/mL (≈ 11.4 µM) | > 16 µg/mL | > 45.8 µM | 4 µg/mL (≈ 11.4 µM) | 16 µg/mL | 45.8 µM | 1 µg/mL (≈ 2.86 µM) |  | 4 µg/mL (≈ 11.4 µM) |  |  | 2 µg/mL | 5.7 µM | > 16 µg/mL | > 45.8 µM | S. aureus Respiration Inhibition [16]: 81.9%
N.N.[Cl][Pt][Cl] [CPT, cisplatin, reference compound] |  |  |  |  |  |  |  |  |  |  |  |  |  |  |  | IC50 ([11]; cell viability, CCK-8, 24 h, ± SD, n = 6): 16.1 ± 1.3 µM
